Measured values from PMC10042540, “Targeting oncogenic KRasG13C with nucleotide-based covalent inhibitors” (eLife, 2023).

How the values were obtained:
[1] = test system: SOS; assay: Guanine nucleotide-exchange factor assay (mantdGDP fluorescence); format: biochemical
Experimental: SOS-catalysed nucleotide exchange was monitored at 25 °C in a FluoroMax-3 spectrofluorometer (excitation at 360 nm, emission at 440 nm) in 20 mM HEPES (pH 7.5), 100 mM NaCl, 2 mM MgCl2, and 1 mM TCEP. 5 µM KRas1-169 was mixed with 10 µM mantdGDP and subsequently with different concentrations of SOS (0.25 µM and 0.5 µM) (Figure 3A; Figure 3—figure supplement 1).

[2] = test system: tErk; assay: Electroporation into HeLa cells, western blot quantification; format: cell-based, human; settings: for tErk mean fold change: mean of cell lysates
Experimental: (§1) HeLa cells were obtained from the American Type Culture Collection (ATCC) and were cultured in DMEM medium (Gibco) supplemented with 10% fetal bovine serum (FBS) (PAN-Biotech) and 1% penicillin/streptomycin (Gibco). Cells were cultured in a humidified incubator at 37 °C in the presence of 5% CO2. The identity of the cells was validated by STR profiling and the cells were tested negative for mycoplasma contamination.
(§2) Electroporation of full-length KRas constructs (KRasWT, KRasG13C, KRasG13C-edaGDP, KRasG13C:acetyledaGDP and KRasG13C-edaGppCp) was performed based on the protocol described by [Alex et al., 2019] using the Neon Transfection System Kit (Thermo Fisher). For electroporation, 3 million cells per experiment were harvested by trypsinization, washed with PBS, and resuspended in 85 µL of the electroporation buffer R (Thermo Fisher). Increasing amounts of recombinant protein samples for each construct (0, 50, 100, 200 and 300 µg) were diluted 1:1 in buffer R followed by the addition of 30 µL of this protein master mix to the cell suspension. This cellular slurry was loaded into a […] Neon Pipette Tip (Thermo Fisher) and electroporated with 2x35 ms pulses at 1000 V. After electroporation, the cells were washed twice with PBS (15 mL) to remove non-internalized extracellular protein and the cell pellet was resuspended in 2 mL complete growth media. Cells were transferred into six-well tissue culture plates (Sarstedt) and incubated for 24 hr at 37 °C and 5% CO2 in a humidified incubator for recovery before being processed for western blotting analysis.
(§3) After recovery of the electroporation, cells were washed twice with ice-cold PBS and lysed in 100 µL of phosphatase and protease inhibitor containing RIPA buffer (Cell Signaling Technology). Cells were incubated on ice for 30 min and then harvested by scraping followed by centrifugation at 14,000 rpm for 10 min at 4 °C. Protein concentrations were determined using the Pierce BCA protein assay (Thermo) following the manufacturer’s recommended procedure. Equal amounts of protein (10 µg) were analyzed by SDS-PAGE and transferred to Immobilon-FL PVDF membranes (Merck Millipore) using Pierce 1-step transfer buffer (Thermo) and the Pierce Power Blotter (Thermo). Membranes were washed with ddH2O for 5 min, blocked with OdysseyBlocking Buffer TBS (Li-Cor) for 1 hr at room temperature and then incubated with primary antibodies diluted in OdysseyBlocking Buffer TBS overnight at 4 °C with gentle agitation. KRas (Sigma Aldrich, SAB1404011-100UG), pcRafS338 (CST, 9427), tAkt1 (CST, 2938), pAktS473 (CST, 4060), tErk (CST, 4696), pErkT202/Y204 (CST, 4370), pS6S235/236 (CST, 4858), and β-actin (CST, 4970/Sigma-Aldrich, A5441) antibodies were used to detect the individual proteins. After primary antibody incubation, membranes were washed three times with TBS-T (50 mM Tris, 150 mM NaCl, 0.05% Tween 20, pH 7.4) for 5 min before being incubated with secondary antibodies (anti-mouse IgG (H+L) (DyLight 680 Conjugate) (CST, 5470) / anti-rabbit IgG (H+L) (DyLight 800 4 X PEG Conjugate) (CST, 5151)) diluted in OdysseyBlocking Buffer TBS for 1 hr at room temperature with gentle agitation. After secondary antibody incubation, the membranes were washed three times for 5 min with TBS-T and then scanned using an OdysseyCLx imaging system (Li-Cor). Quantification of protein levels from western blots was performed using Empiria Studio (Li-Cor) (Figure 3B, C, Figure 3—figure supplements 6–9).

[3] = test system: pErkT202/Y204; assay: as above; format: cell-based, human; settings: for pErk mean fold change: mean of cell lysates
Experimental: as §1, §2, §3

[4] = test system: pcRafS338; assay: as above; format: cell-based, human; settings: for pcRaf mean fold change: mean of cell lysates
Experimental: as §1, §2, §3

[5] = test system: pS6S235/236; assay: as above; format: cell-based, human; settings: for pS6 mean fold change: mean of cell lysates
Experimental: as §1, §2, §3

[6] = test system: pAktS473; assay: as above; format: cell-based, human; settings: for pAkt mean fold change: mean of cell lysates
Experimental: as §1, §2, §3

[7] = test system: tAkt1; assay: as above; format: cell-based, human; settings: for tAkt mean fold change: mean of cell lysates
Experimental: as §1, §2, §3

[8] = test system: Ras pathway (pcRaf, pAkt, pErk, pS6); assay: Electroporation into HeLa cells, western blot of downstream signalling; format: cell-based, human; settings: electroporation of 50-300 µg protein
Experimental: as §1, §2
After recovery of the electroporation, cells were washed twice with ice-cold PBS and lysed in 100 µL of phosphatase and protease inhibitor containing RIPA buffer (Cell Signaling Technology). Cells were incubated on ice for 30 min and then harvested by scraping followed by centrifugation at 14,000 rpm for 10 min at 4 °C. Protein concentrations were determined using the Pierce BCA protein assay (Thermo) following the manufacturer’s recommended procedure. Equal amounts of protein (10 µg) were analyzed by SDS-PAGE and transferred to Immobilon-FL PVDF membranes (Merck Millipore) using Pierce 1-step transfer buffer (Thermo) and the Pierce Power Blotter (Thermo). Membranes were washed with ddH2O for 5 min, blocked with OdysseyBlocking Buffer TBS (Li-Cor) for 1 hr at room temperature and then incubated with primary antibodies diluted in OdysseyBlocking Buffer TBS overnight at 4 °C with gentle agitation. […] Quantification of protein levels from western blots was performed using Empiria Studio (Li-Cor) (Figure 3B, C, Figure 3—figure supplements 6–9).

Substance: KRasG13C: recombinant oncogenic KRasG13C mutant protein, GDP-bound
- SOS-catalysed nucleotide exchange ([1]; 5 µM KRas1-169, 10 µM mantdGDP, 0.25 or 0.5 µM SOS): efficiently catalysed nucleotide exchange
- intrinsic nucleotide exchange rate ([1]; absence of SOS): drastically increased
- tErk fold change ([2]; 50 µg, Cell lysate 1): 0.88
- tErk fold change ([2]; 50 µg, Cell lysate 2): 1.05
- tErk fold change ([2]; 50 µg, Cell lysate 3): 0.99
- tErk mean fold change ([2]; 50 µg): 0.97
- tErk fold change ([2]; 100 µg, Cell lysate 1): 0.44
- tErk fold change ([2]; 100 µg, Cell lysate 2): 1.04
- tErk fold change ([2]; 100 µg, Cell lysate 3): 1.00
- tErk mean fold change ([2]; 100 µg): 0.83
- tErk fold change ([2]; 200 µg, Cell lysate 1): 0.50
- tErk fold change ([2]; 200 µg, Cell lysate 2): 1.05
- tErk fold change ([2]; 200 µg, Cell lysate 3): 0.89
- tErk mean fold change ([2]; 200 µg): 0.81
- tErk fold change ([2]; 300 µg, Cell lysate 1): 0.97
- tErk fold change ([2]; 300 µg, Cell lysate 2): 1.08
- tErk fold change ([2]; 300 µg, Cell lysate 3): 0.89
- tErk mean fold change ([2]; 300 µg): 0.98
- pErk fold change ([3]; 50 µg, Cell lysate 1): 5.54
- pErk fold change ([3]; 50 µg, Cell lysate 2): 1.80
- pErk fold change ([3]; 50 µg, Cell lysate 3): 3.53
- pErk mean fold change ([3]; 50 µg): 3.62
- pErk fold change ([3]; 100 µg, Cell lysate 1): 6.18
- pErk fold change ([3]; 100 µg, Cell lysate 2): 2.89
- pErk fold change ([3]; 100 µg, Cell lysate 3): 3.58
- pErk mean fold change ([3]; 100 µg): 4.22
- pErk fold change ([3]; 200 µg, Cell lysate 1): 6.87
- pErk fold change ([3]; 200 µg, Cell lysate 2): 3.48
- pErk fold change ([3]; 200 µg, Cell lysate 3): 4.30
- pErk mean fold change ([3]; 200 µg): 4.88
- pErk fold change ([3]; 300 µg, Cell lysate 1): 9.07
- pErk fold change ([3]; 300 µg, Cell lysate 2): 4.08
- pErk fold change ([3]; 300 µg, Cell lysate 3): 5.76
- pErk mean fold change ([3]; 300 µg): 6.30
- pcRaf fold change ([4]; 50 µg, Cell lysate 1): 1.43
- pcRaf fold change ([4]; 50 µg, Cell lysate 2): 2.59
- pcRaf fold change ([4]; 50 µg, Cell lysate 3): 1.91
- pcRaf mean fold change ([4]; 50 µg): 1.98
- pcRaf fold change ([4]; 100 µg, Cell lysate 1): 1.55
- pcRaf fold change ([4]; 100 µg, Cell lysate 2): 4.23
- pcRaf fold change ([4]; 100 µg, Cell lysate 3): 1.55
- pcRaf mean fold change ([4]; 100 µg): 2.44
- pcRaf fold change ([4]; 200 µg, Cell lysate 1): 1.46
- pcRaf fold change ([4]; 200 µg, Cell lysate 2): 6.14
- pcRaf fold change ([4]; 200 µg, Cell lysate 3): 1.74
- pcRaf mean fold change ([4]; 200 µg): 3.11
- pcRaf fold change ([4]; 300 µg, Cell lysate 1): 1.29
- pcRaf fold change ([4]; 300 µg, Cell lysate 2): 6.29
- pcRaf fold change ([4]; 300 µg, Cell lysate 3): 1.50
- pcRaf mean fold change ([4]; 300 µg): 3.03
- pS6 fold change ([5]; 50 µg, Cell lysate 1): 1.14
- pS6 fold change ([5]; 50 µg, Cell lysate 2): 1.57
- pS6 fold change ([5]; 50 µg, Cell lysate 3): 1.40
- pS6 mean fold change ([5]; 50 µg): 1.37
- pS6 fold change ([5]; 100 µg, Cell lysate 1): 0.95
- pS6 fold change ([5]; 100 µg, Cell lysate 2): 1.80
- pS6 fold change ([5]; 100 µg, Cell lysate 3): 1.21
- pS6 mean fold change ([5]; 100 µg): 1.32
- pS6 fold change ([5]; 200 µg, Cell lysate 1): 1.17
- pS6 fold change ([5]; 200 µg, Cell lysate 2): 2.22
- pS6 fold change ([5]; 200 µg, Cell lysate 3): 1.06
- pS6 mean fold change ([5]; 200 µg): 1.48
- pS6 fold change ([5]; 300 µg, Cell lysate 1): 1.44
- pS6 fold change ([5]; 300 µg, Cell lysate 2): 2.42
- pS6 fold change ([5]; 300 µg, Cell lysate 3): 1.24
- pS6 mean fold change ([5]; 300 µg): 1.70
- pAkt fold change ([6]; 50 µg, Cell lysate 1): 1.68
- pAkt fold change ([6]; 50 µg, Cell lysate 2): 1.22
- pAkt fold change ([6]; 50 µg, Cell lysate 3): 2.21
- pAkt mean fold change ([6]; 50 µg): 1.70
- pAkt fold change ([6]; 100 µg, Cell lysate 1): 3.58
- pAkt fold change ([6]; 100 µg, Cell lysate 2): 2.56
- pAkt fold change ([6]; 100 µg, Cell lysate 3): 1.82
- pAkt mean fold change ([6]; 100 µg): 2.65
- pAkt fold change ([6]; 200 µg, Cell lysate 1): 4.98
- pAkt fold change ([6]; 200 µg, Cell lysate 2): 2.01
- pAkt fold change ([6]; 200 µg, Cell lysate 3): 1.89
- pAkt mean fold change ([6]; 200 µg): 2.96
- pAkt fold change ([6]; 300 µg, Cell lysate 1): 4.64
- pAkt fold change ([6]; 300 µg, Cell lysate 2): 3.64
- pAkt fold change ([6]; 300 µg, Cell lysate 3): 1.72
- pAkt mean fold change ([6]; 300 µg): 3.33
- tAkt fold change ([7]; 50 µg, Cell lysate 1): 1.94
- tAkt fold change ([7]; 50 µg, Cell lysate 2): 0.93
- tAkt fold change ([7]; 50 µg, Cell lysate 3): 1.69
- tAkt mean fold change ([7]; 50 µg): 1.52
- tAkt fold change ([7]; 100 µg, Cell lysate 1): 2.66
- tAkt fold change ([7]; 100 µg, Cell lysate 2): 0.74
- tAkt fold change ([7]; 100 µg, Cell lysate 3): 1.08
- tAkt mean fold change ([7]; 100 µg): 1.49
- tAkt fold change ([7]; 200 µg, Cell lysate 1): 2.05
- tAkt fold change ([7]; 200 µg, Cell lysate 2): 1.29
- tAkt fold change ([7]; 200 µg, Cell lysate 3): 1.44
- tAkt mean fold change ([7]; 200 µg): 1.59
- tAkt fold change ([7]; 300 µg, Cell lysate 1): 1.78
- tAkt fold change ([7]; 300 µg, Cell lysate 2): 1.44
- tAkt fold change ([7]; 300 µg, Cell lysate 3): 1.65
- tAkt mean fold change ([7]; 300 µg): 1.62
- downstream signalling (pcRaf, pAkt, pErk, pS6) [8]: concentration-dependent activation of the downstream signalling
